Experimental data as given in patent US9783511B2, “Carbamate benzoxazine propionic acids and acid derivatives for modulation of RORgamma activity and the treatment of disease” (Merck Sharp & Dohme Corp., priority 2013, dated 2017).
pIC50: −log10 of the molar value.

The compounds below were run against human RORgammaT-Ligand Binding Domain (LBD) (Homo sapiens (Human), UniProt P51449) (assay: RORγ-Ligand Binding Domain TR-FRET Assay (co-activator peptide SRC1_2 recruitment)). Conditions: HIS-tagged RORγ-LBD 3 nM, biotinylated SRC1 LXXLL peptide 100 nM, incubated overnight at 4° C., 665 nm/615 nm ratio.
Format: biochemical
Source text: Activation of RORgammaT activity can be measured using, e.g., a biochemical TR-FRET assay. In such an assay, interaction of cofactor-derived peptides with human RORgammaT-Ligand Binding Domain (LBD) can be measured.
To identify novel antagonists of RORgammaT, an assay was developed which employs the interaction of RORgammaT with its co-activator peptide SRC1_2. […] The RORγ-Ligand Binding Domain TR-FRET Assay was run according to the following protocol.
HIS-tagged RORγ-LBD protein was recombinantly expressed in Escherichia coli. The RORγ-LBD protein was purified by Ni^2+-affinity resin. Purified protein was then diluted in assay buffer (50 mM Tris pH 7.0, 50 mM KCl, 1 mM EDTA, 0.1 mM DTT, 100 μg/mL bovine serum albumin, delipidated) to obtain a RORγ-LBD final concentration of 3 nM.
Compounds to be tested were injected to the 384-well assay plate using Acoustic Droplet Ejection technology by Echo 550 liquid handler (Labcyte, CA).

human RORgammaT-Ligand Binding Domain (LBD), sequence (P51449 269-508): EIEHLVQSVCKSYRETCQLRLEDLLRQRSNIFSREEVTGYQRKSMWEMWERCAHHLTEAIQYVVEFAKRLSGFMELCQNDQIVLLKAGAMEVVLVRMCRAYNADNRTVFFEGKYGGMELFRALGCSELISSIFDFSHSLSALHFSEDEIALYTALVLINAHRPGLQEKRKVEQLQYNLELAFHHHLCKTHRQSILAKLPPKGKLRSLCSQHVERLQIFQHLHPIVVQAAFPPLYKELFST

Compound	pIC50
C[C@@H](C[C@H]1CN(S(=O)(=O)c2ccnc(C3CC3)c2)c2cc(NC(=O)OC(C)(C)C(F)(F)F)ccc2O1)C(=O)O (single isomer, unassigned) [Example 6DC, (R or S)-3-((S)-4-((2-cyclopropylpyridin-4-yl)sulfonyl)-6-((((1,1,1-trifluoro-2-methylpropan-2-yl)oxy)carbonyl)amino)-3,4-dihydro-2H-benzo[b][1,4]oxazin-2-yl)-2-methylpropanoic acid]	7.79
C[C@H](C[C@H]1CN(S(=O)(=O)c2cn(C(F)F)nc2Cl)c2cc(NC(=O)OC(C)(C)C(F)(F)F)ccc2O1)C(=O)O (single isomer, unassigned) [Example 6DD, (R or S)-3-((S)-4-((3-chloro-1-(difluoromethyl)-1H-pyrazol-4-yl)sulfonyl)-6-((((1,1,1-trifluoro-2-methylpropan-2-yl)oxy)carbonyl)amino)-3,4-dihydro-2H-benzo[b][1,4]oxazin-2-yl)-2-methylpropanoic acid]	7.63
C[C@@H](C[C@H]1CN(S(=O)(=O)c2cn(C(F)F)nc2Cl)c2cc(NC(=O)OC(C)(C)C(F)(F)F)ccc2O1)C(=O)O (single isomer, unassigned) [Example 6DE, (R or S)-3-((S)-4-((3-chloro-1-(difluoromethyl)-1H-pyrazol-4-yl)sulfonyl)-6-((((1,1,1-trifluoro-2-methylpropan-2-yl)oxy)carbonyl)amino)-3,4-dihydro-2H-benzo[b][1,4]oxazin-2-yl)-2-methylpropanoic acid]	7.40
CC[C@H](C[C@H]1CN(S(=O)(=O)c2cccc(C3CC3)c2)c2cc(NC(=O)OC(C)(C)C(F)(F)F)ccc2O1)C(=O)O (single isomer, unassigned) [Example 10D, (R or S)-2-(((S)-4-((3-cyclopropylphenyl)sulfonyl)-6-((((1,1,1-trifluoro-2-methylpropan-2-yl)oxy)carbonyl)amino)-3,4-dihydro-2H-benzo[b][1,4]oxazin-2-yl)methyl)butanoic acid]	7.89
CC[C@@H](C[C@H]1CN(S(=O)(=O)c2cccc(C3CC3)c2)c2cc(NC(=O)OC(C)(C)C(F)(F)F)ccc2O1)C(=O)O (single isomer, unassigned) [Example 10F, (R or S)-2-(((S)-4-((3-cyclopropylphenyl)sulfonyl)-6-((((1,1,1-trifluoro-2-methylpropan-2-yl)oxy)carbonyl)amino)-3,4-dihydro-2H-benzo[b][1,4]oxazin-2-yl)methyl)butanoic acid]	7.88
CC[C@H](C[C@H]1CN(S(=O)(=O)c2cn(CC)nc2OCCO)c2cc(NC(=O)OC(C)(C)C(F)(F)F)ccc2O1)C(=O)O (single isomer, unassigned) [Example 10L, (R or S)-2-(((S)-4-((1-ethyl-3-(2-hydroxyethoxy)-1H-pyrazol-4-yl)sulfonyl)-6-((((1,1,1-trifluoro-2-methylpropan-2-yl)oxy)carbonyl)amino)-3,4-dihydro-2H-benzo[b][1,4]oxazin-2-yl)methyl)butanoic acid]	7.31
CC[C@@H](C[C@H]1CN(S(=O)(=O)c2cn(CC)nc2OCCO)c2cc(NC(=O)OC(C)(C)C(F)(F)F)ccc2O1)C(=O)O (single isomer, unassigned) [Example 10N, (R or S)-2-(((S)-4-((1-ethyl-3-(2-hydroxyethoxy)-1H-pyrazol-4-yl)sulfonyl)-6-((((1,1,1-trifluoro-2-methylpropan-2-yl)oxy)carbonyl)amino)-3,4-dihydro-2H-benzo[b][1,4]oxazin-2-yl)methyl)butanoic acid]	7.17
Cc1cc(S(=O)(=O)N2C[C@H](C[C@@H](C(=O)O)C3CC3)Oc3ccc(NC(=O)OC(C)(C)C(F)(F)F)cc32)ccc1F (single isomer, unassigned) [Example 10T, (R or S)-2-cyclopropyl-3-((S)-4-((4-fluoro-3-methylphenyl)sulfonyl)-6-((((1,1,1-trifluoro-2-methylpropan-2-yl)oxy)carbonyl)amino)-3,4-dihydro-2H-benzo[b][1,4]oxazin-2-yl)propanoic acid]	7.79
